Laboratory results from patent US8412459B2, “Method for determining the allergic potential of a compound” (Vlaamse Instelling Voor Technologisch Onderzoek (VITO), priority 2006, dated 2013).

What was measured:
CD34-DCs = experiment: RT-PCR gene expression in CD34-DCs; classification model (lda + quadratic discriminant) on NINJ, PBEF1, CCR7, CREM, leave-one-compound-out cross validation; conditions: LFC of NINJ, exposure 6, 12 and 24 h at concentration of EC20, on average 3 individuals, test compound left out of training
Experimental: Expression of every gene was measured after exposure to each of the 9 different compounds (control solvent). For each compound on average 3 different unrelated individuals were used for exposure. On average sample from 3 different individuals were used per compound. Each exposure consisted of 3 exposure times (6, 12 and 24 hours) and three different concentrations were used for each exposure experiment.
To quantify the separation of the two groups one can use e.g. a linear discriminant analysis (lda). This method determines the direction(s) in space (in our case one direction in a 3D space) in which the discrimination between the groups is maximal. […] Mathematically, this projection is a linear combination of the LFC at 6, 12 and 24 hours; this linear combination of LFC's will be called the feature value. On this feature data per gene an F-test can be performed to assess the significance (p-value) of the separation.
One can now set a threshold and only retain those genes with a p-value below it.
To this end the lda was again used to find the two dimensional subspace in which the separation between the two groups is optimal. The variables on the two axes of this space are now a linear combination of the four feature values of the four genes. We will call the x- and y-variable respectively feature value 1 and 2. Note that these feature values are trained by the data.
For this quadratic model, the decision boundary separating the two groups is a conic section, in this case an ellipse.
First one chooses one of the 9 compounds and removes the corresponding measurements from the dataset.
Next one repeats the lda optimization and the construction of a quadratic discriminant model as described in the previous step.
Next the data of the removed compound are fed into the classification model and used to predict the class to which the compound belongs.

[1] = a priori known, from literature / in vivo tests; cited from earlier work

| Molecule | class predicted by the classification model in cross validation (sensitizer / non-sensitizer) (CD34-DCs) | known sensitizing classification / strength [1] |
| --- | --- | --- |
| CCC[CH2][Sn]([Cl])([CH2]CCC)[CH2]CCC [TBT, Tributyltin chloride] | non-sensitizers | – |
| C=CCc1ccc(O)c(OC)c1 [Eugenol, 2-Methoxy-4-(2-propenyl)phenol] | – | weak sensitizing capacity |
| C[S+](C)[O-] [DMSO, dimethylsulfoxide] | non-sensitizers | – |
| O=[N+]([O-])c1ccc(Cl)c([N+](=O)[O-])c1 [DNCB, 1-chloro-2,4-dinitrobenzene] | – | strong sensitizer |
| tritonX-100 | non-sensitizers | – |
